From US20190382850A1, “METHOD FOR IDENTIFYING MITOCHONDRIAL DNA IN EXTRACELLULAR VESICLES AND TREATMENT OF MTDNA-RELATED DISORDERS AND CANCER” (Memorial Sloan-Kettering Cancer Center, priority 2017, published 2019)

Test system: ND1 DNA in EVs from patients
Test: mtDNA ND1 level (qPCR) in circulating EVs of patients before and after therapy
Format: in vivo, human
Conditions: FIG. 7d
Protocol: (Panel a), Dot plot of nuclear DNA copy number quantification as determined by qPCR for GAPDH gene in circulating EVs isolated from fresh collected plasma (5-8 ml) of 8 healthy controls and 20 luminal breast cancer patients at different stage of their disease (Table 5). Each point corresponds to a patient sample. (Panel b), Schematic and gel electrophoresis of whole mtDNA genome amplified in several patient derived circulating EV-DNA resulting from 46 overlapping PCR amplicons to cover all the mtDNA genome. (Panel c), mtDNA ND1 level change (Ct qPCR value from 2 ng of total EV-DNA) determined in the same patient (two different examples are reported) following time and therapy response (PR, partial response; Stable Disease; POD, progression of disease); (Panel d) mtDNA ND1 level change (Ct qPCR value from 2 ng of total EV-DNA) determined in two different patients (#1, #2) before and after a certain therapy. Data are reported as error bars, mean±s.d. of n=3 independent experiments. […]
DNA and cDNAs were amplified by quantitative PCR (qPCR) using the Applied Biosystem Viia™ 7 Real-Time PCR System in the Power SYBR® Green PCR Master Mix Buffer. […] For analysis, ΔΔct method was applied and fold change was calculated (2^−ΔΔct). […]

In the case of `COc1cccc2c1C(=O)c1c(O)c3c(c(O)c1C2=O)C[C@@](O)(C(=O)CO)C[C@@H]3O[C@H]1C[C@H](N)[C@H](O)[C@H](C)O1` [Doxorubicin], the “ND1 DNA level in EVs from patients receiving the therapy” value is reported as “higher”.
